Measured values as given in ChEMBL document CHEMBL5331061, “Design, synthesis, and biological evaluation of Wee1 kinase degraders” (Eur J Med Chem, 2022).
Calls of active or inactive are those of the source. The rule behind the calls is not given here.

Experiments:
[1] = biological target: T1, Protein cereblon/Wee1-like protein kinase (Homo sapiens, UniProt P30291+Q96SW2); assay: PROTAC activity at CRBN/Wee1 in human MV4-11 cells assessed as residual Wee1 level at IC50 measured after 6 hrs by Western blot analysis (reference value: 100%); type: cell-based
MV4-11 [2] = assay: Antiproliferative activity against human MV4-11 cells assessed as cell growth inhibition measured after 72 hrs by SRB Assay; conditions: MV4-11, 72 h
SUM149PT = assay: Antiproliferative activity against human SUM149PT cells assessed as cell growth inhibition measured after 72 hrs by SRB Assay
MV4-11 [3] = assay: Effect on PLK1 expression in human MV4-11 cells at IC50 measured after 6 hrs by Western blot analysis; type: functional, cell-based
A498 = assay: Antiproliferative activity against human A498 cells assessed as cell growth inhibition measured after 72 hrs by SRB Assay; conditions: A498, 72 h
[4] = biological target: Serine/threonine-protein kinase PLK1 (Homo sapiens, UniProt P53350); assay: Inhibition of PLK1 (unknown origin)
[5] = Effect on Wee1 level in human MV4-11 cells assessed as residual Wee1 level at 12.5 nM measured after 6 hrs by Immunoblotting method (reference value: 100%); type: functional
[6] = AUClast in ICR mouse at 20 mg/kg, po measured upto 360 mins; type: ADME, organism-based; design: time < 360 min, dose 20 mg/kg, route po; conditions: in vivo
[7] = Effect on Wee1 level in human MV4-11 cells assessed as Wee1 level at 25 nM measured after 6 hrs by Immunoblotting method relative to control (reference value: 100%); type: functional
[8] = biological target: T1, Protein cereblon/Wee1-like protein kinase; assay: PROTAC activity at CRBN/Wee1 in human MV4-11 cells assessed as reduction in Wee1 level measured after 72 hrs by Western blot analysis; type: cell-based
[9] = Effect on Wee1 level in human MV4-11 cells assessed as residual Wee1 level at 6.25 nM measured after 6 hrs by Immunoblotting method (reference value: 100%); type: functional
[10] = Tmax in ICR mouse at 20 mg/kg, po measured upto 360 mins; type: ADME, organism-based; conditions: in vivo
[11] = Half life in ICR mouse at 20 mg/kg, po measured upto 360 mins; type: ADME, organism-based; conditions: in vivo
[12] = Observed AUCinfinity ICR mouse at 20 mg/kg, po measured upto 360 mins; type: ADME, organism-based; design: time < 360 min, dose 20 mg/kg, route po; conditions: in vivo
[13] = Cmax in ICR mouse at 20 mg/kg, po measured upto 360 mins; type: ADME, organism-based; design: time < 360 min, dose 20 mg/kg, route po; conditions: in vivo
[14] = biological target: Wee1-like protein kinase (Homo sapiens) (UniProt P30291); assay: Inhibition of Wee1 in human MV4-11 cells at IC50 measured after 6 hrs by Western blot analysis relative to control; type: cell-based
[15] = Observed MRTinfinity ICR mouse at 20 mg/kg, po measured upto 360 mins; type: ADME, organism-based; conditions: in vivo
[16] = Effect on Wee1 level in human MV4-11 cells assessed as Wee1 level at 100 nM measured after 6 hrs by Immunoblotting method relative to control (reference value: 100%); type: functional
[17] = Effect on Wee1 level in human MV4-11 cells assessed as Wee1 level at 50 nM measured after 6 hrs by Immunoblotting method relative to control (reference value: 100%); type: functional

T1 sequence (P30291 whole entry, looked up): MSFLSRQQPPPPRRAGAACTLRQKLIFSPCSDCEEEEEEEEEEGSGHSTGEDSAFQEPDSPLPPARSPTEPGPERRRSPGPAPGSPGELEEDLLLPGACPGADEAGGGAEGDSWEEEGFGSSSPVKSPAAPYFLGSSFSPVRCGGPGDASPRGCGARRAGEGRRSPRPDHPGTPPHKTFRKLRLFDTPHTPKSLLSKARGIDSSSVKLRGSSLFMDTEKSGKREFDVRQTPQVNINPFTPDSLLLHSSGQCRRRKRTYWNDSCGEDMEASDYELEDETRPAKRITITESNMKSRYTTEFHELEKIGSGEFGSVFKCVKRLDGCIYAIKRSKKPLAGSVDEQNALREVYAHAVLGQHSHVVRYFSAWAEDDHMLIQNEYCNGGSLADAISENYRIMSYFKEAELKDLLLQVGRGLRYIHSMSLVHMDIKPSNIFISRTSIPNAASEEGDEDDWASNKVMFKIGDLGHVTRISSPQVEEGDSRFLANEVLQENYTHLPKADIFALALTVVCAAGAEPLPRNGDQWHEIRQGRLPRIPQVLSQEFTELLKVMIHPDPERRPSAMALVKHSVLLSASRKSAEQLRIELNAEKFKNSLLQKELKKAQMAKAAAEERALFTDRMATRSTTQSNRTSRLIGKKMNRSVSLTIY
T1 sequence (Q96SW2 whole entry, looked up): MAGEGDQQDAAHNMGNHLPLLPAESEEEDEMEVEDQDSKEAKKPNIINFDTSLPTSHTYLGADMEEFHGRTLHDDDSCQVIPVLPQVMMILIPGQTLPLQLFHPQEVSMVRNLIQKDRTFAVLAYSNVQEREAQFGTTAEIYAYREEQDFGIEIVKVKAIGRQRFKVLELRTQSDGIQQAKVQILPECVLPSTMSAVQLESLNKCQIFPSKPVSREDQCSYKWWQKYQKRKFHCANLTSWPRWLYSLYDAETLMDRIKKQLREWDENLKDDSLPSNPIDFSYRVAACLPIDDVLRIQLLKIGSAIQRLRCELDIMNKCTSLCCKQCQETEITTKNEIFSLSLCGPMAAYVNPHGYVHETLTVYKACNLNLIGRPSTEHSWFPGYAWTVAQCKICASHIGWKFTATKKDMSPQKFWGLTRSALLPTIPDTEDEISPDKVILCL
Chain of Serine/threonine-protein kinase PLK1 (P53350 whole entry): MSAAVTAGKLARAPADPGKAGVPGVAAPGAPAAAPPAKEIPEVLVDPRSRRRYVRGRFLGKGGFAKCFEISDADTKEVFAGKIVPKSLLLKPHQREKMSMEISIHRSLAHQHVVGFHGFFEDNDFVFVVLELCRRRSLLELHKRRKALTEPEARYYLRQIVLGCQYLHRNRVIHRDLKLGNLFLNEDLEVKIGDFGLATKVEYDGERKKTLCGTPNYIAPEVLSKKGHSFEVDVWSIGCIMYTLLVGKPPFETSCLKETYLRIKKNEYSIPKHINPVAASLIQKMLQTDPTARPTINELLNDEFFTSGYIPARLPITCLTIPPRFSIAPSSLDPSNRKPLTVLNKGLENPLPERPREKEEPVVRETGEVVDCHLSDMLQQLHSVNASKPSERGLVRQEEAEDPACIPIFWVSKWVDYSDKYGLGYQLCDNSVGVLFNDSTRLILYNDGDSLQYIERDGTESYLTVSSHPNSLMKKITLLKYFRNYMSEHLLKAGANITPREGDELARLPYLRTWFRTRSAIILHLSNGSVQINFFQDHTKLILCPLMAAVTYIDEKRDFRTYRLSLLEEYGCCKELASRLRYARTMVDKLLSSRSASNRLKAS
Chain of Wee1-like protein kinase (Homo sapiens) (P30291 whole entry, looked up): as the sequence (P30291 whole entry, looked up) above

Row | Activity [1] | IC50 (MV4-11 [2]) | SMILES | IC50 (SUM149PT) | Activity (MV4-11 [3]) | IC50 (A498) | other results
1 | 32% | 0.809 µM | C=CCn1c(=O)c2cnc(Nc3ccc(N4CCN(CC(=O)NCCCCCNc5cccc6c5C(=O)N(C5CCC(=O)NC5=O)C6=O)CC4)cc3)nc2n1-c1cccc(C(C)(C)O)n1 (configuration not stated) | 2.13 µM | inactive | 6.87 µM | 
2 | 49% | 0.408 µM | C=CCn1c(=O)c2cnc(Nc3ccc(N4CCN(CC(=O)NCCOCCOCCOCCOCCNc5cccc6c5C(=O)N(C5CCC(=O)NC5=O)C6=O)CC4)cc3)nc2n1-c1cccc(C(C)(C)O)n1 (configuration not stated) | 3.14 µM | inactive | 5.83 µM | 
3 | 37% | 0.215 µM | C=CCn1c(=O)c2cnc(Nc3ccc(N4CCN(CC(=O)NCCCNc5cccc6c5C(=O)N(C5CCC(=O)NC5=O)C6=O)CC4)cc3)nc2n1-c1cccc(C(C)(C)O)n1 (configuration not stated) | 1.55 µM | inactive | 7.74 µM | 
4 | 49% | 1.11 µM | C=CCn1c(=O)c2cnc(Nc3ccc(N4CCN(CC(=O)NCCCCCCNc5cccc6c5C(=O)N(C5CCC(=O)NC5=O)C6=O)CC4)cc3)nc2n1-c1cccc(C(C)(C)O)n1 (configuration not stated) | 2.81 µM | inactive | 6.65 µM | 
5 | 23% | 5 µM | C=CCn1c(=O)c2cnc(Nc3ccc(N4CCN(CC(=O)NCCCCC(=O)NCCOc5cccc6c5C(=O)N(C5CCC(=O)NC5=O)C6=O)CC4)cc3)nc2n1-c1cccc(C(C)(C)O)n1 (configuration not stated) | > 10 µM | inactive | > 10 µM | 
6 | 45% | 7 µM | C=CCn1c(=O)c2cnc(Nc3ccc(N4CCN(CC(=O)NCCCCC(=O)NCc5ccc(COc6cccc7c6C(=O)N(C6CCC(=O)NC6=O)C7=O)cc5)CC4)cc3)nc2n1-c1cccc(C(C)(C)O)n1 (configuration not stated) | > 10 µM | inactive | > 10 µM | 
7 | 21% | 0.226 µM | C=CCn1c(=O)c2cnc(Nc3ccc(N4CCN(CC(=O)NCCCCNc5cccc6c5C(=O)N(C5CCC(=O)NC5=O)C6=O)CC4)cc3)nc2n1-c1cccc(C(C)(C)O)n1 (configuration not stated) | 1.59 µM | inactive | 5.38 µM | 
8 | 22% | 2 µM | C=CCn1c(=O)c2cnc(Nc3ccc(N4CCN(CC(=O)NCCCCC(=O)NCCNc5cccc6c5C(=O)N(C5CCC(=O)NC5=O)C6=O)CC4)cc3)nc2n1-c1cccc(C(C)(C)O)n1 (configuration not stated) | > 10 µM | inactive | > 10 µM | 
9 | 21% | 1 µM | C=CCn1c(=O)c2cnc(Nc3ccc(N4CCN(CC(=O)NCCOCCOCCNc5cccc6c5C(=O)N(C5CCC(=O)NC5=O)C6=O)CC4)cc3)nc2n1-c1cccc(C(C)(C)O)n1 (configuration not stated) | 6.04 µM | inactive | > 10 µM | IC50 [4]: > 10 µM
10 | 26% | 2.15 µM | C=CCn1c(=O)c2cnc(Nc3ccc(N4CCN(CC(=O)NCCOCCOCCOCCOCCOCCNc5cccc6c5C(=O)N(C5CCC(=O)NC5=O)C6=O)CC4)cc3)nc2n1-c1cccc(C(C)(C)O)n1 (configuration not stated) | > 10 µM | inactive | 10 µM | IC50 [4]: > 10 µM
11 | 27% | 6 µM | C=CCn1c(=O)c2cnc(Nc3ccc(N4CCN(CC(=O)NCCCCC(=O)NCc5ccc(CNc6cccc7c6C(=O)N(C6CCC(=O)NC6=O)C7=O)cc5)CC4)cc3)nc2n1-c1cccc(C(C)(C)O)n1 (configuration not stated) | > 10 µM | inactive | > 10 µM | IC50 [4]: > 10 µM
12 | 28% | 0.523 µM | C=CCn1c(=O)c2cnc(Nc3ccc(N4CCN(CC(=O)NCCOCCOCCOCCOCCOCCOCCOCCOCCNc5cccc6c5C(=O)N(C5CCC(=O)NC5=O)C6=O)CC4)cc3)nc2n1-c1cccc(C(C)(C)O)n1 (configuration not stated) | 8.85 µM | inactive | > 10 µM | 
13 | 24% | 0.182 µM | C=CCn1c(=O)c2cnc(Nc3ccc(N4CCN(CCCCCNc5cccc6c5C(=O)N(C5CCC(=O)NC5=O)C6=O)CC4)cc3)nc2n1-c1cccc(C(C)(C)O)n1 (configuration not stated) | 1.26 µM | inactive | 1.31 µM | 
14 | 37% | 2.2 µM | C=CCn1c(=O)c2cnc(Nc3ccc(N4CCN(CC(=O)NCCOCCOCCOCCNc5cccc6c5C(=O)N(C5CCC(=O)NC5=O)C6=O)CC4)cc3)nc2n1-c1cccc(C(C)(C)O)n1 (configuration not stated) | > 10 µM | inactive | > 10 µM | 
15 | 33% | 1.13 µM | C=CCn1c(=O)c2cnc(Nc3ccc(N4CCN(CC(=O)NCCOCCOCCOCCOCCOCCOCCNc5cccc6c5C(=O)N(C5CCC(=O)NC5=O)C6=O)CC4)cc3)nc2n1-c1cccc(C(C)(C)O)n1 (configuration not stated) | > 10 µM | inactive | > 10 µM | 
16 |  | 0.133 µM | C=CCn1c(=O)c2cnc(Nc3ccc(N4CCN(C)CC4)cc3)nc2n1-c1cccc(C(C)(C)O)n1 [ADAVOSERTIB] | 0.536 µM | inactive | 0.215 µM | Activity [5]: 98%; AUC(0-t) at 6 h [6]: 915 ng·h/mL; Activity [7]: 90%; Activity [8]: inactive; Activity [9]: 90%; Tmax [10]: 0.25 h; IC50 [4]: 0.268 µM; half-life [11]: 7.15 h; AUC(0-inf) [12]: 934 ng·h/mL; Cmax [13]: 681 ng/mL; inhibition [14]: 94%; MRT inf [15]: 2.84 h; Activity [16]: 120%; Activity [17]: 70%
17 | 21% | 0.716 µM | C=CCn1c(=O)c2cnc(Nc3ccc(N4CCN(CC(=O)NCCOCCOCCOCCOCCOCCOCCOCCNc5cccc6c5C(=O)N(C5CCC(=O)NC5=O)C6=O)CC4)cc3)nc2n1-c1cccc(C(C)(C)O)n1 (configuration not stated) | > 10 µM | inactive | > 10 µM | IC50 [4]: > 10 µM
